One assay deals with X-box-binding protein 1 (Homo sapiens, UniProt P17861). The format is functional, Cricetulus griseus.
A further assay has as its target Collagenase 3 (Homo sapiens, UniProt P45452). As to the kind of experiment: MMP13 inhibition and MMP selectivity, late-stage follow-up, selectivity assay for MMP13 inhibitor project, biochemical, probe development, late stage results, panel member MMP-13 [IC50 Assay] (AID 2067).
In a further assay the target is Neutrophil collagenase (Homo sapiens, UniProt P22894). Kind of assay: MMP13 inhibition and MMP selectivity, late-stage follow-up, selectivity assay for MMP13 inhibitor project, biochemical, probe development, late stage results, panel member MMP-8 [IC50 Assay] (AID 2067).
The nature of assay [1]: cytotoxicity in HEK-293T cells, dose response, cytotoxicity control for TCR NF-kB inhibitor project, luminescence, T-cell screen hits (AID 489026).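 Note: cells exposed to compound about 14 hours before the viability readout.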 The format is functional, cell-based.
Assay [2] in a line: inhibitors of firefly luciferase expression or activity, dose response, H4 neuroglioma cells, luminescence (AID 1990). The format is functional, cell-based.
A short description of assay [3]: Luminescence-based counterscreen assay for KLF5 inhibitors: dose response cell-based high throughput screening assay to identify cytotoxic compounds using the IEC-6 intestinal epithelial cell line. [Related pubchem assays: 1700 (Primary screen.), 1834 (Confirmation screen.), 1858 (Summary AID.), 1905 (Counterscreen.)]. The format is functional.
Assay [4] in a line: Luminescence Cell-Based Dose Response HTS to Identify Inhibitors of 5'UTR Stem-Loop Driven Prion Protein mRNA Translation in H4 Neuroglioblastoma Cells. [Related pubchem assays: 1827 (Project Summary), 1813 (Primary HTS)]. The class given is functional.
In assay [5] the target is T1, Microphthalmia-associated transcription factor (Homo sapiens, UniProt O75030).
T1 sequence (O75030 whole entry): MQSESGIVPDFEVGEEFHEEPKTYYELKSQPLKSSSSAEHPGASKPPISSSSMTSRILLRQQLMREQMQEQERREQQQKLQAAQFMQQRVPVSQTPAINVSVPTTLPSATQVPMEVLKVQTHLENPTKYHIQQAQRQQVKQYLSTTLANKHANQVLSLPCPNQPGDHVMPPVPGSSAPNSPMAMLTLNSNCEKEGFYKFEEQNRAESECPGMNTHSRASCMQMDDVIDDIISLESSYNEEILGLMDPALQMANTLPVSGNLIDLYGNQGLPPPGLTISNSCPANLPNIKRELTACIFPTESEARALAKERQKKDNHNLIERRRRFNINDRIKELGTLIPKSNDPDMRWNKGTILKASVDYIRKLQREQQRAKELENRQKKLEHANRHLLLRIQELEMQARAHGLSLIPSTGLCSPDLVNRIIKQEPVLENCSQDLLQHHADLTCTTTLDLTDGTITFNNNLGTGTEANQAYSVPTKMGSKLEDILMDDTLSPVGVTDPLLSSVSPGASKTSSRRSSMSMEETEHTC
Kind of assay: TRPM1 promoter luciferase signal decrease, dose response, MITF inhibitor project, cell-based, SK-MEL-5, cherry-picked, set 3 (AID 493073).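 Note: SK-MEL-5 melanoma cells with luciferase driven by the MITF target TRPM1 promoter.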 The format is functional.

Assay [6] has as its target T2, Heat shock factor protein 1 (Mus musculus, UniProt P38532).
T2 sequence (P38532 whole entry): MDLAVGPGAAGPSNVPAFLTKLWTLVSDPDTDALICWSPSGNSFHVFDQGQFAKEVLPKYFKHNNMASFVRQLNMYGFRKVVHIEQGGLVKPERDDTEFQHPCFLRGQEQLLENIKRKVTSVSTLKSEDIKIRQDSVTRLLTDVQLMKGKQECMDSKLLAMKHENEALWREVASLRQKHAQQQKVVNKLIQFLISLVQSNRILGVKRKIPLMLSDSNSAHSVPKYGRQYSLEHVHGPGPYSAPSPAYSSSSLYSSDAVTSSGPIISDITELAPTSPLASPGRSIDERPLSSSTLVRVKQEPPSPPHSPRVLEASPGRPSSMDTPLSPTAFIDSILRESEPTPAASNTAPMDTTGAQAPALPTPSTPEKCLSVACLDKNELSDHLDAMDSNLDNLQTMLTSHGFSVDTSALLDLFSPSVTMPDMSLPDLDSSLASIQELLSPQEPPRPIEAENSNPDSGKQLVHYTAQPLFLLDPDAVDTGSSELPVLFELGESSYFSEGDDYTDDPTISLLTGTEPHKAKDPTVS
As to the kind of experiment: inhibition of MG132-induced HSE-luciferase signal, confirmation, cell-based, NIH3T3, luminescence, dose retest (AID 2382).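 Note: NIH3T3 fibroblasts with HSF1-driven luciferase reporter stressed by proteasome inhibitor MG132; luminescence from HSF1-driven luciferase expression after 8 hours of MG132 stress.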 The format is functional.

Assay [7] concerns HEK293. Kind of assay: PMA/Ionomycin induced NF-kB luciferase assay in 293- NF-kB-Luc stable cells. [Related pubchem assays: 1299, 1270, 1295, 1375, 1287, 1281, 1293, 1291, 1289, 1280, 465, 1364, 1282, 1372, 1365, 1370, 1367, 1366, 1269, 1373, 1292, 1290, 1302, 1371, 1283, 1271, 1294, 1374, 1368, 1369 ]. The format is functional, cell-based. The following applies: Homo sapiens.

The target of assay [8] is Luciferin 4-monooxygenase (Photinus pyralis, UniProt P08659). Kind of assay: In vitro luciferase assay using purified luciferase. [Related pubchem assays: 1299, 1270, 1295, 1375, 1287, 1281, 1293, 1291, 1289, 1280, 465, 1364, 1282, 1372, 1365, 1370, 1367, 1366, 1266, 1373, 1292, 1290, 1302, 1371, 1283, 1271, 1294, 1374, 1368, 1369 ].
The test system of assay [9] is HEK293. Kind of assay: Cytotoxicity assay in HEK293 cells. [Related pubchem assays (depositor defined):AID1266, AID1269, AID1270, AID1271, AID1280, AID1281, AID1282, AID1283, AID1287, AID1289, AID1290, AID1291, AID1292, AID1293, AID1294, AID1295, AID1299, AID1302, AID1364, AID1365, AID1366, AID1367, AID1369, AID1370, AID1371, AID1372, AID1373, AID1374, AID1375, AID1384 …. The format is functional, cell-based. The following applies: Homo sapiens.

For assay [10], the target named is Voltage-gated N-type calcium channel alpha-1B subunit/Amyloid beta A4 precursor protein-binding family A member 1 (Homo sapiens, UniProt Q00975+Q02410). Kind of assay: disruptors of Mint-PDZ/N-type channel peptide interaction – biochemical, HTRF, set 2, SAR follow-up (AID 434980). The format is functional.
For assay [11], the target named is Scavenger receptor class B member 1 (Mus musculus, UniProt Q61009). As to the kind of experiment: inhibitors of SR-BI mediated HDL lipid uptake, dose response, ldlA[mSR-BI] cells, fluorescence, cherry pick (AID 493194).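 Note: cellular uptake of fluorescent DiI-labeled HDL measured as cell fluorescence.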 The format is functional, cell-based.
In assay [12] the target is T3, Estrogen receptor (Homo sapiens, UniProt P03372).
T3 sequence (P03372 whole entry): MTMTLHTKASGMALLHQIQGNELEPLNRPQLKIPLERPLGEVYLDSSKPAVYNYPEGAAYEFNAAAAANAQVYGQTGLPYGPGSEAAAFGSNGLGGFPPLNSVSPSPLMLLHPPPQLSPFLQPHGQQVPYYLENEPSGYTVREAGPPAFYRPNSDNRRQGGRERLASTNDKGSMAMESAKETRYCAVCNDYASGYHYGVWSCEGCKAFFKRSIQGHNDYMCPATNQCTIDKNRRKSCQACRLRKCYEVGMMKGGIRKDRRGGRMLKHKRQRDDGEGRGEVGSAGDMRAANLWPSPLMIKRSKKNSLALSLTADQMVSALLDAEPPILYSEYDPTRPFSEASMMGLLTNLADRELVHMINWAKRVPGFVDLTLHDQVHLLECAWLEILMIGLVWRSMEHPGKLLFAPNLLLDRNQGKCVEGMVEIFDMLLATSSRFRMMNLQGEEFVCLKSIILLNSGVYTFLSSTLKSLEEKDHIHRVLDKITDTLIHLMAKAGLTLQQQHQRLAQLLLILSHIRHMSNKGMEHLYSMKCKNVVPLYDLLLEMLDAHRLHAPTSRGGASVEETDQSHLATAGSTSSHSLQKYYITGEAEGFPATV

Assay [13] has as its target Acyl-homoserine lactone acylase PvdQ (Pseudomonas aeruginosa (strain LESB58), UniProt Q9I194). As to the kind of experiment: P. aeruginosa PvdQ acylase inhibitors, dose response, biochemical, fluorescence, plate reader and imaging, cherry-picks (AID 493231).
The target in assay [14] is Nucleotide-binding oligomerization domain-containing protein 2 (Homo sapiens, UniProt Q9HC29). As to the kind of experiment: PubChem AID 2334. The format is functional.
Assay [15] has as its system HEK293. Kind of assay: cells. The conditions noted are these: Homo sapiens.
Assay [16] concerns the target T4, Nucleotide-binding oligomerization domain-containing protein 1 (Homo sapiens, UniProt Q9Y239).
T4 sequence (Q9Y239 whole entry): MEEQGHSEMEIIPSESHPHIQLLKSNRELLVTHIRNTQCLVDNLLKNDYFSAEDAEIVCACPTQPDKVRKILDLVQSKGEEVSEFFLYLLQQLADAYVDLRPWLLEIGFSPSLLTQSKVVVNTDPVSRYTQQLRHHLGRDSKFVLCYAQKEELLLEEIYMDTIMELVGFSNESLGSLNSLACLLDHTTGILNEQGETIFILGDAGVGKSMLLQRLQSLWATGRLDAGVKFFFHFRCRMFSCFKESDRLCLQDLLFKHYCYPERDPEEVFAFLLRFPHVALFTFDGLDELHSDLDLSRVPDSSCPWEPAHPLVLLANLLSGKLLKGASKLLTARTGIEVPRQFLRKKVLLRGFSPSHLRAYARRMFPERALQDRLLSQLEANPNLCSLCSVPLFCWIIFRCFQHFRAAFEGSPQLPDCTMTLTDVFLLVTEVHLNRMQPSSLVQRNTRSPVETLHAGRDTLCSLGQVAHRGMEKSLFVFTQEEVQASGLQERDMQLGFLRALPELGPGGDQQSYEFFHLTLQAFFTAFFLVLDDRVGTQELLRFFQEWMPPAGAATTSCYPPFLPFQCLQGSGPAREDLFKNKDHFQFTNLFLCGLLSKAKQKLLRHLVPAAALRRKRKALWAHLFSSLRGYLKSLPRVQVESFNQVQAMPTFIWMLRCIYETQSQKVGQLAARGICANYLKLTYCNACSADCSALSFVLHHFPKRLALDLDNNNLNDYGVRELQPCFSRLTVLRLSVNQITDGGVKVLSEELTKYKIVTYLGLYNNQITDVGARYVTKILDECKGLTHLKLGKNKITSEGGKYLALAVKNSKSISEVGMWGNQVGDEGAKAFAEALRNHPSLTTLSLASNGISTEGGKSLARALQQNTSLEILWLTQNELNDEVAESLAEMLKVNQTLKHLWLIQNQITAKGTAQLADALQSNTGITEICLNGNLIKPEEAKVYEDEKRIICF
Kind of assay: NOD1 signaling inhibitors, SAR follow-up, revised (AID 2333). The format is functional.

Assay [17] addresses T3, Estrogen receptor. As to the kind of experiment: potentiators of ERα–SRC-1 coactivator binding, dose response, biochemical, TR-FRET, ERα LBD (AID 737).
The target of a further assay is Tumor necrosis factor (Homo sapiens, UniProt P01375). As to the kind of experiment: TNFa-triggered NF-kB activation inhibitors, SAR follow-up, cell-based, revised (AID 2337). The format is functional.
Assay [18] in a line: A Cell Based Secondary Assay To Explore Cytotoxicity of Compounds that Sensitize Mycobacterium Tuberculosis to Beta-Lactam Antibiotics. The class given is functional.

Structures are written as SMILES. Active and inactive are the calls of the source.
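Throughout, for Absolute IC50 (XBP1): confirmatory dose-response counter-screen serving a CHOP assay.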

Voltage-gated N-type calcium channel alpha-1B subunit/Amyloid beta A4 precursor protein-binding family A member 1, sequence (Q00975 whole entry): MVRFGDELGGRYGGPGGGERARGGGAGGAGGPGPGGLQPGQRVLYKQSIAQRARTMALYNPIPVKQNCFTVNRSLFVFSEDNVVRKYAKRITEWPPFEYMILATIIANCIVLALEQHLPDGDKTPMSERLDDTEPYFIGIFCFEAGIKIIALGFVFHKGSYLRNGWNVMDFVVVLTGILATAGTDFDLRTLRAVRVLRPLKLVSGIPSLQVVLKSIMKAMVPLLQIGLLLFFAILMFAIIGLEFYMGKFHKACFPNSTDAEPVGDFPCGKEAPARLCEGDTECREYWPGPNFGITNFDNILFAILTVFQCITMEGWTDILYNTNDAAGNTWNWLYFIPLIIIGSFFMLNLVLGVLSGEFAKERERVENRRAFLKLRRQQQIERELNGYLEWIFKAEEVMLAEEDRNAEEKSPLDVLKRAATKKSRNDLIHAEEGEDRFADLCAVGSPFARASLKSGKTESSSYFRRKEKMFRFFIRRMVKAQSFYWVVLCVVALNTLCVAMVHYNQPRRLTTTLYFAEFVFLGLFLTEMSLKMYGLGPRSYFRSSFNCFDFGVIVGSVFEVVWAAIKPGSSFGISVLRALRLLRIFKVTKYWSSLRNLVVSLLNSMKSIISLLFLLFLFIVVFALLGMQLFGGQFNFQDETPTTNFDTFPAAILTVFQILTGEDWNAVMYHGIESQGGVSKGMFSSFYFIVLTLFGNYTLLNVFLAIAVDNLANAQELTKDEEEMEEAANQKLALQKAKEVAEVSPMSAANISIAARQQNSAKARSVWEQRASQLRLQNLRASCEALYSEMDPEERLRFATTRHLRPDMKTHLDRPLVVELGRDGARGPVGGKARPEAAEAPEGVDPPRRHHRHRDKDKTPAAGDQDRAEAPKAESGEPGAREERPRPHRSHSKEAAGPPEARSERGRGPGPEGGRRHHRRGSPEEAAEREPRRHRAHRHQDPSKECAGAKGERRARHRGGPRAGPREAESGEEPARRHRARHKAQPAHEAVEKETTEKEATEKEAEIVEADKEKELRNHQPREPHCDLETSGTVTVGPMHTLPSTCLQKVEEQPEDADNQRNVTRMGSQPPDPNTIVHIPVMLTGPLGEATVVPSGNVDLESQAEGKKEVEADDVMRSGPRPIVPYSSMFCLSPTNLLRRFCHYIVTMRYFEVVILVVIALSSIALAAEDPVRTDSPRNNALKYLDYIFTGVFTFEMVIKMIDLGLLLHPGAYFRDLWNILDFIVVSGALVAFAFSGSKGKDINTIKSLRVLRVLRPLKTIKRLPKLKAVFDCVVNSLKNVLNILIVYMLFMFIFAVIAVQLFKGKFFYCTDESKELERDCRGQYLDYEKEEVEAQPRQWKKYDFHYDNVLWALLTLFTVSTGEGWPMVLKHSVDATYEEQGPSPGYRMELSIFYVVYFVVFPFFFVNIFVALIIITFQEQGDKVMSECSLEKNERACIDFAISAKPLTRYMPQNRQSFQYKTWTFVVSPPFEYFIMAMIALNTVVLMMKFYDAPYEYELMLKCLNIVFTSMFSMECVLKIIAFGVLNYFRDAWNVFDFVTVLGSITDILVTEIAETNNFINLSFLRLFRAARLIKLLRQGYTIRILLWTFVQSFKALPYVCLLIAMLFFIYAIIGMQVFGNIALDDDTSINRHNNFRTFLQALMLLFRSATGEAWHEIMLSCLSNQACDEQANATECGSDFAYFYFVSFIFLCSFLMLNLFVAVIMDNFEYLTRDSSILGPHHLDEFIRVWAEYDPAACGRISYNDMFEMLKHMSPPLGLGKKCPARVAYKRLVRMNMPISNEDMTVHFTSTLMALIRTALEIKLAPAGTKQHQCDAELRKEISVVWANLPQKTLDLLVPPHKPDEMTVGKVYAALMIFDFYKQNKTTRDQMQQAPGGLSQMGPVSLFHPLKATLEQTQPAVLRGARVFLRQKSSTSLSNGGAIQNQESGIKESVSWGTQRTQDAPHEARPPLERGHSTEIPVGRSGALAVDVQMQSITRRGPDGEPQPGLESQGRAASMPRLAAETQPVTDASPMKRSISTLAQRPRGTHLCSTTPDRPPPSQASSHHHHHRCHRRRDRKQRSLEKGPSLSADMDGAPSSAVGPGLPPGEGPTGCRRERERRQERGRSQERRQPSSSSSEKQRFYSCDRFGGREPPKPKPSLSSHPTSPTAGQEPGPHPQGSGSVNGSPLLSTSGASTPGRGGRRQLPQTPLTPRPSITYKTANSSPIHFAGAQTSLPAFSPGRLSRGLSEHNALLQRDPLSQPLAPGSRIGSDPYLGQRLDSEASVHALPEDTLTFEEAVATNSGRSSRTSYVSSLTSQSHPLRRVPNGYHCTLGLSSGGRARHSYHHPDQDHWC
Voltage-gated N-type calcium channel alpha-1B subunit/Amyloid beta A4 precursor protein-binding family A member 1, sequence (Q02410 whole entry): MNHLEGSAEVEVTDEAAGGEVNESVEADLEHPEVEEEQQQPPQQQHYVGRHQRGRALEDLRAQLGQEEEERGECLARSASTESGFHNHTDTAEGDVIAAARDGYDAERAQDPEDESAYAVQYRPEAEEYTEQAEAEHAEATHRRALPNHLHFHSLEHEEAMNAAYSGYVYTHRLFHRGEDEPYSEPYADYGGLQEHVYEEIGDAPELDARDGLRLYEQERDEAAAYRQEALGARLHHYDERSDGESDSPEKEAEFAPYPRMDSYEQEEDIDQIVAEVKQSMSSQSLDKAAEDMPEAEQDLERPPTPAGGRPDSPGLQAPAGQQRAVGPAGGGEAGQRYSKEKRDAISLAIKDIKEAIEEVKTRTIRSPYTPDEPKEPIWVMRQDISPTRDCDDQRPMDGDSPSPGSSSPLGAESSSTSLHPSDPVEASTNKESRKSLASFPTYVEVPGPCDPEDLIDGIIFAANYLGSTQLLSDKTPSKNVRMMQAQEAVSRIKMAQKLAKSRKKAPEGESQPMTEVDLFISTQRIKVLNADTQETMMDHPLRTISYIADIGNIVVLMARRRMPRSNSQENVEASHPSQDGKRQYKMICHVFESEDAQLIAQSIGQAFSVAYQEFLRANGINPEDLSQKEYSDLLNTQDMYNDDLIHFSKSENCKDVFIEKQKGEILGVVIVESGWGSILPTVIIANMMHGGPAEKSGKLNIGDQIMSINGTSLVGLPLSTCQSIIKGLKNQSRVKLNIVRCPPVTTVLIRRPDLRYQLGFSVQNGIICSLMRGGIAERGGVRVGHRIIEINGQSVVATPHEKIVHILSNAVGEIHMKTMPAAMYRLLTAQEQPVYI
Tumor necrosis factor, sequence (P01375 whole entry): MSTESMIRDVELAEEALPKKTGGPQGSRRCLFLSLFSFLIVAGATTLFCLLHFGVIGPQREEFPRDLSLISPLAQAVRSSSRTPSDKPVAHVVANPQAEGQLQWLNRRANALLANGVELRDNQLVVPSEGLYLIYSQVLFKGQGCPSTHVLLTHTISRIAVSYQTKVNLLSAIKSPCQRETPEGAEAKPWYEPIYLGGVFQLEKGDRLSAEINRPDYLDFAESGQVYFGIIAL
Scavenger receptor class B member 1, sequence (Q61009 whole entry): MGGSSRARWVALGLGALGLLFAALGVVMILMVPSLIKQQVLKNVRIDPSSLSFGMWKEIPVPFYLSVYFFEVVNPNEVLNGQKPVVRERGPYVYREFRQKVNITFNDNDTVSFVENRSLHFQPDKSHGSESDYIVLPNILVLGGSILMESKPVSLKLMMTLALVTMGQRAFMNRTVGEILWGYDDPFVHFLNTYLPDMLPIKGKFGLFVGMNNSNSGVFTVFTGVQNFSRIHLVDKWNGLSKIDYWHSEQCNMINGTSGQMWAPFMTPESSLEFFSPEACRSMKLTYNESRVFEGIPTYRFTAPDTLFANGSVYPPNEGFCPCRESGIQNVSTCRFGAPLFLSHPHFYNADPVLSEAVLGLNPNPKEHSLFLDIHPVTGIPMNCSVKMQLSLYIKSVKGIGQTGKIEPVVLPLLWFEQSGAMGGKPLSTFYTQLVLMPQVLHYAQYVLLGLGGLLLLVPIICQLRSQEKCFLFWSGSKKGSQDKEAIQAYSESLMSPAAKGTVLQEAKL
Luciferin 4-monooxygenase, sequence (P08659 whole entry): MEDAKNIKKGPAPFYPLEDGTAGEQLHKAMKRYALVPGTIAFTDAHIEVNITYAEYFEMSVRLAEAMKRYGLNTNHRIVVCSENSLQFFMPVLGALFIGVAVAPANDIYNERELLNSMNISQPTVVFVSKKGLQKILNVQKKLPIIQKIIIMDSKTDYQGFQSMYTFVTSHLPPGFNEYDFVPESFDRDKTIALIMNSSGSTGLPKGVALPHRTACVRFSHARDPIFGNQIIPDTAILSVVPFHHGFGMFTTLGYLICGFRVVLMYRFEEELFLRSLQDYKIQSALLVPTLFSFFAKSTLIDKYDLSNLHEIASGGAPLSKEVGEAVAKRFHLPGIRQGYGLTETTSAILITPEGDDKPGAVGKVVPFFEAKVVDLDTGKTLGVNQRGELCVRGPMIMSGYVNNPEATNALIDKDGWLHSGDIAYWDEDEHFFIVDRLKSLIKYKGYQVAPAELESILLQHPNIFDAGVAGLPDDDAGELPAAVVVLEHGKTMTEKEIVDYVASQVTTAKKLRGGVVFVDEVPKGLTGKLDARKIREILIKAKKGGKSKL
X-box-binding protein 1, sequence (P17861 whole entry): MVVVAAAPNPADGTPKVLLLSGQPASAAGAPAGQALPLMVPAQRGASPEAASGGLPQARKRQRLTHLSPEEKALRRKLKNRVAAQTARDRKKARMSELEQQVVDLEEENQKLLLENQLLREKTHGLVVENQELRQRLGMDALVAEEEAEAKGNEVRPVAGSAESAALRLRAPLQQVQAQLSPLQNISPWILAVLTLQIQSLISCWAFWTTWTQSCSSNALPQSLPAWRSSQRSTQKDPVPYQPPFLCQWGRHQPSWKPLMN

Consider `CCC(C)(C)NC(=O)C(c1cccn1C)N(C(=O)Cn1nnc2ccccc21)c1ccc(F)cc1` (configuration not stated), for which the “Absolute IC50 (XBP1)” value at X-box-binding protein 1 is 10 µM.
`O=C(O)c1ccc(CSc2nc3c(c(=O)[nH]2)CCC3)cc1`: the IC50 on Collagenase 3 and at Neutrophil collagenase was > 39.8 µM (inactive) throughout.
On to `COC(=O)C1=C(CN2CCCc3ccccc32)NC(=O)NC1c1ccc(F)cc1` (configuration not stated), for which the IC50 in assay [1] is > 80 µM (inactive); in [3], > 39.8 µM (not active). The EC50 is 6.69 µM (inconclusive) in assay [2]; 12.4 µM (active) in [4]; 8.88 µM (active) in assay [6]; 9.82 µM (not active) with HEK293 [7]; > 8 µM (not active) in [8]; > 8 µM (inactive) in the assay with HEK293 [9]. For the same molecule, the AC50 in assay [5] was 2.16 µM (active).
`CN(CCc1ccccc1)C(=O)c1cc(-c2ccco2)nc2ccccc12`: the IC50 in assay [10] was > 56.8 µM (inactive).
Turning to `CCOC(=O)c1c(Nc2nc(C)c(C(=O)NC)s2)sc(C)c1C`, the AC50 in [11] was 11.6 µM (active). Also, the IC50 at Estrogen receptor [12] is given as 42.3 µM (not active).
`Cc1ccc([S+]([O-])c2ccc(C)cc2)cc1`: the AC50 in assay [13] is 2.65 µM (active).
As for `Cc1ccc(Cn2c(NC(=O)c3ccco3)nc3ccccc32)cc1`, the IC50 (in assay [14]; with HEK293 [15]; in assay [16]; on Tumor necrosis factor) was > 20 µM (inactive) in each case. For the same molecule, the 50% effective concentration (EC50) on Estrogen receptor [17] is 14.6 µM (active). Moreover, in assay [18], the CC50 was 10.1 µM (active).

The record behind these values is ChEMBL document CHEMBL1201862, “PubChem BioAssay data set” (2004).
